# Experimental data: patent US20120101083A1, “S1P1 AGONISTS COMPRISING A BICYCLIC N-CONTAINING RING” (GLAXO GROUP LIMITED, priority 2009, published 2012)
# Where a name gives a salt, the structure may show the parent alone.
# Biological target: T1, S1P1 receptor (S1P1 expressing RH7777 membranes) (Homo sapiens, UniProt P21453)
# T1 construct: expressed in transfected cells; host or cells: RH7777 cells (membranes)
# Assay: S1P1 GTPγS assay
# Assay type: biochemical
# Conditions: tested in one of the above S1P1 assays (two GTPγS formats)
# Description: The potencies and efficacies of the compounds of this invention for the S1P1 receptor can be determined by GTPγS assay performed on the human cloned receptor as described herein.
# Membrane preparation for S1P1 GTPγS assay
# All steps were performed at 4° C. Cells were homogenised within a glass Waring blender for 2 bursts of 15 secs in 200 mls of buffer (50 mM HEPES, 1 mM leupeptin, 25 μg/ml bacitracin, 1 mM EDTA, 1 mM PMSF, 2 μM pepstatin A). The blender was plunged into ice for 5 mins after the first burst and 10-40 mins after the final burst to allow foam to dissipate. The material was then spun at 500 g for 20 mins and the supernatant spun for 36 mins at 48,000 g. The pellet was resuspended in the same buffer as above but without PMSF and pepstatin A. The material was then forced through a 0.6 mm needle, made up to the required volume, (usually x4 the volume of the original cell pellet), aliquoted and stored frozen at −80° C.
# S1P1 expressing RH7777 membranes (1.5 μg/well) membranes (1.5 μg/well) were homogenised by passing through a 23 G needle. These were then adhered to WGA-coated SPA beads (0.125 mg/well) in assay buffer (HEPES 20 mM, MgCl2 10 mM, NaCl 100 mM and pH adjusted to 7.4 using KOH 5M). GDP 10 μM FAC and saponin 90 μg/ml FAC were also added
# After 30 minutes precoupling on ice, the bead and membrane suspension was dispensed into white Greiner polypropylene LV 384-well plates (5 μl/well), containing […] of compound. 5 μl/well [^35S]-GTPγS (0.5 nM for S1P1 or 0.3 nM for S1P3 final radioligand concentration) made in assay buffer was then added to the plates. The final assay cocktail (10.1 μl) was then sealed, spun on a centrifuge, then read immediately on a Viewlux instrument.
# Alternatively, after 30 minutes precoupling on ice, the bead and membrane suspension was mixed with ^35S]-GTPγS (0.5 nM final radioligand concentration) in assay buffer (HEPES 20 mM, MgCl2 10 mM, NaCl 100 mM and pH adjusted to 7.4 using KOH 5M) in a 1:1 ratio. The bead, membrane and radioligand suspension was dispensed into white Greiner polypropylene low volume 384-well plates (10 μl/well), containing 0.1 μl of a solution of test compound in 100% DMSO. The final assay cocktail (10.1 μl) was then sealed, spun on a centrifuge, then read immediately on a Viewlux instrument.
# T1 sequence (P21453 whole entry): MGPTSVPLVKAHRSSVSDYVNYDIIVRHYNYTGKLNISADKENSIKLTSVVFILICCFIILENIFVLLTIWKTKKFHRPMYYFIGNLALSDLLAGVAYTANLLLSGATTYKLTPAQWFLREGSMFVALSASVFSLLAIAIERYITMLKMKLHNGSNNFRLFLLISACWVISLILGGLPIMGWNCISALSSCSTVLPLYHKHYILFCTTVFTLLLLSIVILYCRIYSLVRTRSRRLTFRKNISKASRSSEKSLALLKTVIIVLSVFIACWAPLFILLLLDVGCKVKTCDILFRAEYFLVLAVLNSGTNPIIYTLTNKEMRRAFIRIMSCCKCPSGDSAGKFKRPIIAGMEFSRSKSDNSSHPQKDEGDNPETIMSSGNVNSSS
row,SMILES,EC50 [nM]
1,"CCCOc1ncc(-c2nc(-c3ccc4c(c3)CCN(C(CO)CO)CC4)no2)cc1C#N [Example 109, 5-(3-{3-[2-hydroxy-1-(hydroxymethyl)ethyl]-2,3,4,5-tetrahydro-1H-3-benzazepin-7-yl}-1,2,4-oxadiazol-5-yl)-2-(propyloxy)-3-pyridinecarbonitrile]",≤ 1000
2,"CC(C)Oc1ccc(-c2nc(-c3ccc4c(c3)CCN(C(=O)CCCN)CC4)no2)cc1C#N [Example 63, 5-{3-[3-(4-aminobutanoyl)-2,3,4,5-tetrahydro-1H-3-benzazepin-7-yl]-1,2,4-oxadiazol-5-yl}-2-[(1-methylethyl)oxy]benzonitrile]",≤ 100
3,"CNC(=O)CCN1CCc2c(ccc(-c3nnc(-c4ccc(OC(C)C)c(C#N)c4)s3)c2C)C1 [Example 11, 3-[6-(5-{3-Cyano-4-[(1-methylethyl)oxy]phenyl}-1,3,4-thiadiazol-2-yl)-5-methyl-3,4-dihydro-2(1H)-isoquinolinyl]-N-methylpropanamide]",≤ 100
4,"CC(C)Oc1ccc(-c2nc(-c3cccc4c3CCN(CC(N)=O)CC4)no2)cc1C#N [Example 31, 2-[6-(5-{3-Cyano-4-[(1-methylethyl)oxy]phenyl}-1,2,4-oxadiazol-3-yl)-1,2,4,5-tetrahydro-3H-3-benzazepin-3-yl]acetamide]",≤ 1000
5,"CCCOc1ncc(-c2nc(-c3ccc4c(c3)CCN(C(=O)CN)CC4)no2)cc1C#N [Example 107, 5-[3-(3-glycyl-2,3,4,5-tetrahydro-1H-3-benzazepin-7-yl)-1,2,4-oxadiazol-5-yl]-2-(propyloxy)-3-pyridinecarbonitrile]",≤ 1000
6,"CCCOc1ncc(-c2nc(-c3ccc4c(c3)CCN(C[C@H](O)CO)CC4)no2)cc1C#N [Example 115, 5-(3-{3-[(2S)-2,3-dihydroxypropyl]-2,3,4,5-tetrahydro-1H-3-benzazepin-7-yl}-1,2,4-oxadiazol-5-yl)-2-(propyloxy)-3-pyridinecarbonitrile]",≤ 1000

# Continued, values first:
row,EC50 [nM],SMILES
1,≤ 1000,"CCOc1ncc(-c2nc(-c3ccc4c(c3)CCN(C(=O)CN)CC4)no2)cc1C#N [Example 113, 2-(ethyloxy)-5-[3-(3-glycyl-2,3,4,5-tetrahydro-1H-3-benzazepin-7-yl)-1,2,4-oxadiazol-5-yl]-3-pyridinecarbonitrile]"
2,≤ 1000,"CCCNc1ncc(-c2nc(-c3ccc4c(c3C)CCN(C[C@H](O)CO)CC4)no2)cc1C#N [Example 145, 5-(3-{34[(2S)-2,3-dihydroxypropyl]-6-methyl-2,3,4,5-tetrahydro-1H-3-benzazepin-7-yl}-1,2,4-oxadiazol-5-yl)-2-(propylamino)-3-pyridinecarbonitrile]"
3,≤ 1000,"CC(C)Oc1ccc(-c2nnc(-c3cccc4c3CCN(CCC(=O)N(C)C)C4)s2)cc1C#N [Example 46, 3-[5-(5-{3-cyano-4-[(1-methylethyl)oxy]phenyl}-1,3,4-thiadiazol-2-yl)-3,4-dihydro-2(1H)-isoquinolinyl]-N,N-dimethylpropanamide]"
4,≤ 100,"CC(C)Oc1ccc(-c2nc(-c3ccc4c(c3)CCN(C(=O)[C@@H](N)[C@@H](C)O)CC4)no2)cc1C#N [Example 59, 2-[(1-methylethyl)oxy]-5-[3-(3-L-threonyl-2,3,4,5-tetrahydro-1H-3-benzazepin-7-yl)-1,2,4-oxadiazol-5-yl]benzonitrile]"
5,≤ 100,"Cc1c(-c2nnc(-c3ccc(OC(C)C)c(C#N)c3)s2)ccc2c1CCN(CCC(=O)N(C)C)C2 [Example 12, 3-[6-(5-{3-Cyano-4-[(1-methylethyl)oxy]phenyl}-1,3,4-thiadiazol-2-yl)-5-methyl-3,4-dihydro-2(1H)-isoquinolinyl]-N,N-dimethylpropanamide]"
6,≤ 100,"CC(C)Oc1ccc(-c2nc(-c3cccc4c3CCN(CCCO)CC4)no2)cc1C#N [Example 33, 5-{3-[3-(3-Hydroxypropyl)-2,3,4,5-tetrahydro-1H-3-benzazepin-6-yl]-1,2,4-oxadiazol-5-yl}-2-[(1-methylethyl)oxy]benzonitrile]"
7,≤ 100,"CCCOc1ccc(-c2nc(-c3ccc4c(c3)CCN(CC(O)CO)CC4)no2)cc1C#N (stereo not drawn) [Example 51, 5-{3-[3-(2,3-dihydroxypropyl)-2,3,4,5-tetrahydro-1H-3-benzazepin-7-yl]-1,2,4-oxadiazol-5-yl}-2-(propyloxy)benzonitrile]"
8,≤ 1000,"CCOc1ncc(-c2nc(-c3ccc4c(c3)CCN(C(CO)CO)CC4)no2)cc1C#N [Example 110, 2-(ethyloxy)-5-(3-{3-[2-hydroxy-1-(hydroxymethyl)ethyl]-2,3,4,5-tetrahydro-1H-3-benzazepin-7-yl}-1,2,4-oxadiazol-5-yl)-3-pyridinecarbonitrile]"
9,≤ 100,"Cc1c(-c2noc(-c3ccc(OC(C)C)c(C#N)c3)n2)ccc2c1CCN(C(CO)CO)C2 [Example 66, 5-(3-{2-[2-hydroxy-1-(hydroxymethyl)ethyl]-5-methyl-1,2,3,4-tetrahydro-6-isoquinolinyl}-1,2,4-oxadiazol-5-yl)-2-[(1-methylethyl)oxy]benzonitrile hydrochloride]"

# Biological target: T2, S1P1 (PathHunter CHO-K1 EDG1 β-Arrestin cell line) (Homo sapiens, UniProt P21453)
# T2 construct: host or cells: PathHunter CHO-K1 EDG1 β-Arrestin cell line
# T2 sequence (P21453 whole entry): as above
# T2 sequence (P32121 whole entry partner): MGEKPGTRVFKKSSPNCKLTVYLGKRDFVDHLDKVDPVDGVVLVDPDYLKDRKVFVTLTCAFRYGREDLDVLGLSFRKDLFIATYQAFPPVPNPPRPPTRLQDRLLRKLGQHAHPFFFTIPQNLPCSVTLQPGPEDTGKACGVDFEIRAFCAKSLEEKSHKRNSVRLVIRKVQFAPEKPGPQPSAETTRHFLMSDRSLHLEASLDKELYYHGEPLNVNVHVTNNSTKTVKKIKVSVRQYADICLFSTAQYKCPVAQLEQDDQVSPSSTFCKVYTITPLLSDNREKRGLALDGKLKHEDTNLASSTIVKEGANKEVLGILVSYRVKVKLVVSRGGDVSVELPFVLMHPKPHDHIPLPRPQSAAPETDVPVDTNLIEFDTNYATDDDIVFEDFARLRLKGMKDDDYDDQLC
# Assay: S1P-1 β-Arrestin recruitment assay
# Assay type: cell-based
# Conditions: CHO-K1 EDG1 β-Arrestin cells, chemi-luminescence
# Description: S1P-1 β-Arrestin Recruitment Assay
# β-Arrestin recruitment assays were carried out using the PathHunter CHO-K1 EDG1
# β-Arrestin cell line (DiscoveRx Corporation) in a chemi-luminescence detection assay. This cell line stably expresses β-Arrestin 2 and S1P1 fused to complementing portions of β-galactosidase (‘EA’ and ‘pro-link’, respectively) which associate upon Arrestin recruitment to form functional β-galactosidase enzyme.
# Cells were grown to 80% confluency in Growth Medium (F12 nutrient HAMS supplemented with 10% heat-inactivated USA FBS, 1% L-glutamax, 800 μg/ml Geneticin and 300 μg/ml Hygromycin). Cells were harvested from the flask using Enzyme Free Cell Dissociation Buffer (Gibco) and washed from flasks with Optimem solution (Gibco). Cells were then centrifuged at 1000 rpm for 2-3 min and resuspended in Assay Buffer (Prepared from Sigma kit H1387 supplemented with 20 ml/L HEPES, 4.7 ml/L NaHCO3, 0.1% pluronic acid F-68 solution, 0.1% BSA and adjusted to pH 7.4 using sodium hydroxide at 1×10^6 cells/ml. Cells were dispensed into assay plates containing compounds (100n1/well of a solution of test compound in 100% DMSO) at 1×10^4 cells/well and incubated at 37° C./5% CO2 for 90 min followed by 15 min at room temperature. 5 μl detection mix (1 part Galacton Star, 5 parts Emerald II, 19 parts Assay Buffer; DiscoveRx) were added per well and the plates incubated at room temperature for 60 min. Luminescence was quantified using a Viewlux plate reader.
row,EC50 [nM],SMILES
1,≤ 10,"CC(C)Oc1ccc(-c2nc(-c3cccc4c3CCN(C(CO)CO)C4)no2)cc1C#N [Example 180, 5-(3-{2-[2-hydroxy-1-(hydroxymethyl)ethyl]-1,2,3,4-tetrahydro-5-isoquinolinyl}-1,2,4-oxadiazol-5-yl)-2-[(1-methylethyl)oxy]benzonitrile hydrochloride]"
2,≤ 100,"CC(C)Oc1ccc(-c2nc(-c3ccc4c(c3)CCN(CCC(=O)N(C)C)CC4)no2)cc1C#N [Example 23, 3-[7-(5-{3-Cyano-4-[(1-methylethyl)oxy]phenyl}-1,2,4-oxadiazol-3-yl)-1,2,4,5-tetrahydro-3H-3-benzazepin-3-yl]-N,N-dimethylpropanamide]"
3,≤ 10,"CC(C)Oc1ccc(-c2nc(-c3cccc4c3CCN(C[C@@H](O)CO)C4)no2)cc1C#N [Example 178, 5-(3-{2-[(2R)-2,3-dihydroxypropyl]-1,2,3,4-tetrahydro-5-isoquinolinyl}-1,2,4-oxadiazol-5-yl)-2-[(1-methylethyl)oxy]benzonitrile hydrochloride]"
4,≤ 10,"Cc1c(-c2noc(-c3cnc(OC(C)C)c(C#N)c3)n2)ccc2c1CCN(CC(=O)N[C@@H](C)CO)C2 [Example 170, 2-[6-(5-{5-cyano-6-[(1-methylethyl)oxy]-3-pyridinyl}-1,2,4-oxadiazol-3-yl)-5-methyl-3,4-dihydro-2(1H)-isoquinolinyl]-N-[(1S)-2-hydroxy-1-methylethyl]acetamide hydrochloride]"
5,≤ 100,"Cc1c(-c2noc(-c3ccc(OC(C)C)c(Cl)c3)n2)ccc2c1CCN(C(=O)CNC(CO)CO)C2 [Example 190, 2-({2-[6-(5-{3-chloro-4-[(1-methylethyl)oxy]phenyl}-1,2,4-oxadiazol-3-yl)-5-methyl-3,4-dihydro-2(1H)-isoquinolinyl]-2-oxoethyl}amino)-1,3-propanediol hydrochloride]"
6,≤ 10,"Cc1c(-c2noc(-c3ccc(OC(C)C)c(C#N)c3)n2)ccc2c1CCN(C(=O)CNC[C@H](O)CO)C2 [Example 126, 5-[3-(2-{N-[(2S)-2,3-dihydroxypropyl]glycyl}-5-methyl-1,2,3,4-tetrahydro-6-isoquinolinyl)-1,2,4-oxadiazol-5-yl]-2-[(1-methylethyl)oxy]benzonitrile hydrochloride]"
